Source: US11077035B2, “Hair treatment compositions and methods” (SYTHEON LIMITED, priority 2017, dated 2021)

What was measured:
[1] = for change in fluorescence decay pattern with and without ten-fold excess of CaCl2 (selectivity Cu^2+ over Ca^2+): comparison of studies 2A and 2B; for Cu^2+ chelation capability, in words: with CaCl2 (study 2A)
Experimental: Food Chem: 50(10); 2772-2777, 2002
The first chelation study (2A) evaluated the Cu^2+ chelation capability of the test and comparative chelators in the presence of excess Ca^2+. Here, a Fenton reaction was initiated with a mixture of Cu^2+, CaCl2 and hydrogen peroxide at alkaline condition, the mixture comprising [CuCl2]=200 μM, [H2O2]=0.055 μM, [CaCl2]2.3 mM, and [FL]=6.20×10^−8 M. The test compounds were evaluated at a concentration of 600 μM for each of Compounds 1D, 1E and 1F and Deferiprone (a 3 molar excess) and 200 μM for each of EDDS and EDTA.

Singlet oxygen quenching = type: biochemical
From the text: The first study evaluated the quenching ability of the aryl alkanones versus αTocopherol. The test methodology employed is the method of W. Mullen et al., J of Agriculture & Food Chemistry, 59(9):3754-3762, 2011).

[2] = Chelation study 2C: Fe^2+ chelation; details: for % Remaining of FL (20 min) / % Remaining of FL (40 min) / % Remaining of FL (80 min): Fe^2+ ions 200 μM
[3] = Stability under singlet oxygen environment (HPLC); type: physicochemical
Experimental: A second study was performed to determine the stability of the aryl alkanones and α tocopherol under a singlet oxygen environment. In this study, 5 ml of 1 mg/ml solution of each test compound (in DMSO) was mixed with 5 ml of a solution (pH 5) containing 0.16 mg/ml lithium molybdate, 4 ml 0.01 M NaOH, and 5 ml of 0.015% H2O2. 500 μl from each mixture was taken every 2 mins and added to 1 ml of 1 mg/ml curcumin solution (in DMSO) to stop the reaction. The mixture was then injected into an HPLC to monitor product degradation.

[4] = Chelation study 2D: Fe^3+ chelation; details: for % Remaining of FL (20 min) / % Remaining of FL (40 min) / % Remaining of FL (80 min): Fe^3+ ions; for Fe^3+ chelation capability, in words: study 2D

| Compound | change in fluorescence decay pattern with and without ten-fold excess of CaCl2 (selectivity Cu^2+ over Ca^2+) [1] | Cu^2+ chelation capability, in words [1] | Antioxidant Power against singlet oxygen (Singlet oxygen quenching) | % Remaining of FL (20 min) [2] [%] | % Remaining of FL (40 min) [2] [%] | % Remaining of FL (80 min) [2] [%] | Fe^3+ chelation capability, in words [4] | also measured |
| --- | --- | --- | --- | --- | --- | --- | --- | --- |
| COc1ccc(CC(C(C)=O)C(C)=O)cc1OC [Compound 1D, 3-(3,4-dimethoxybenzyl)-2,4-pentanedione] | very little change | almost completely chelated | 4,590 μmole Trolox equivalent/g | 98.3 | 98.3 | 98.3 | – | – |
| COc1ccc(CC(C(C)=O)C(C)=O)cc1 [Compound 1E, 3-(4-methoxybenzyl)-2,4-pentanedione] | very little change | almost completely chelated | 4,374 μmole Trolox equivalent/g | 99.6 | 99.2 | 99.2 | – | – |
| Cc1c(C)c2c(c(C)c1O)CC[C@@](C)(CCC[C@H](C)CCC[C@H](C)CCCC(C)C)O2 [α Tocopherol, reference compound] | – | – | 2,636 μmole Trolox equivalent/g | – | – | – | – | Stability % Product remaining ([3]; singlet oxygen environment (lithium molybdate/H2O2), 2 min): 73%; Stability % Product remaining ([3]; singlet oxygen environment (lithium molybdate/H2O2), 4 min): 58%; Stability % Product remaining ([3]; singlet oxygen environment (lithium molybdate/H2O2), 6 min): 47%; Stability % Product remaining ([3]; singlet oxygen environment (lithium molybdate/H2O2), 8 min): 39%; Stability % Product remaining ([3]; singlet oxygen environment (lithium molybdate/H2O2), 10 min): 35% |
| CCOC(=O)C(C)C(Cc1ccc(O)c(OC)c1)C(C)=O (stereo not shown) [Compound 2M, 3-(3-methoxy-4-hydroxybenzyl)-4-ethylester-2-pentanone] | – | – | – | – | – | – | – | % Remaining of FL (20 min) [4]: 99.8%; % Remaining of FL (40 min) [4]: 99.3%; % Remaining of FL (80 min) [4]: 98.5% |
| O=C(O)CC(NCCNC(CC(=O)O)C(=O)O)C(=O)O (stereo not shown) [EDDS, ethylenediamine-N,N′-disuccinic acid, reference compound] | – | poor chelating capabilities | – | – | – | – | – | chelation of copper, in words ([1]; general statement on applicant's studies in the background): not an effective chelating agent |
| O=C(O)CN(CCN(CC(=O)O)CC(=O)O)CC(=O)O [EDTA, ethylenediamine tetraacetic acid, reference compound] | – | poor chelating capabilities | – | – | – | – | moderate chelating capabilities | – |
| COc1cc(CC(C(C)=O)C(C)=O)ccc1O [Compound 1M, 3-(3-methoxy-4-hydroxybenzyl)-2,4-pentanedione] | – | – | 7,180 μmole Trolox equivalent/g | – | – | – | – | % Remaining of FL (20 min) [4]: 100%; % Remaining of FL (40 min) [4]: 100%; % Remaining of FL (80 min) [4]: 100%; Stability % Product remaining ([3]; 2 min, 0.5 mg/ml, pH 5): 95%; Stability % Product remaining ([3]; 4 min, 0.5 mg/ml, pH 5): 91%; Stability % Product remaining ([3]; 0.1 h, 0.5 mg/ml, pH 5): 88%; Stability % Product remaining ([3]; 8 min, 0.5 mg/ml, pH 5): 85%; Stability % Product remaining ([3]; 10 min, 0.5 mg/ml, pH 5): 82% |
| CC(=O)N(O)CCCCCNC(=O)CCC(=O)N(O)CCCCCNC(=O)CCC(=O)N(O)CCCCCN [Desferal, reference compound] | – | – | – | – | – | – | moderate chelating capabilities | – |
| Cc1c(O)c(=O)ccn1C [Deferiprone, reference compound] | – | moderate chelation capability | – | – | – | – | performed poorly | Fe^2+ chelation capability, in words ([2]; study 2C): good chelation capability |
| COc1cc(CC(C(C)=O)C(C)=O)cc(OC)c1OC [Compound 1F, 3-(3,4,5-trimethoxybenzyl)-2,4-pentanedione] | very little change | almost completely chelated | 6,359 μmole Trolox equivalent/g | 98.6 | 98.1 | 97.7 | – | Stability % Product remaining ([3]; 2 min, 0.5 mg/ml, pH 5): 92%; Stability % Product remaining ([3]; 4 min, 0.5 mg/ml, pH 5): 87%; Stability % Product remaining ([3]; 0.1 h, 0.5 mg/ml, pH 5): 85%; Stability % Product remaining ([3]; 8 min, 0.5 mg/ml, pH 5): 81%; Stability % Product remaining ([3]; 10 min, 0.5 mg/ml, pH 5): 80% |
